Test results as given in the supplement of paper PMC10307832.

Tests used:
AZD1208 + Tozasertib = compound: N[C@@H]1CCCN(c2c(/C=C3\SC(=O)NC3=O)cccc2-c2ccccc2)C1 [AZD1208] + Cc1cc(Nc2cc(N3CCN(C)CC3)nc(Sc3ccc(NC(=O)C4CC4)cc3)n2)n[nH]1 [Tozasertib] (partner 0.1 µM); experiment: relative viability (nuclei count vs DMSO), 5 days (fraction); higher = more cells survive
Outline: (§1)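 Lung cancer cell lines, seeded in 1536-well plates, were treated the following day by pin tool with a single drug or with five library-drug doses (not always all listed) in √10 steps on top of a fixed anchor-drug dose. Cells were fixed and nuclei stained in one step after 5 days, and nuclei were counted. Relative viability is the nuclei count for treated wells divided by that for vehicle wells, reported as medians of duplicate plates.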

XMD14-99 + Foretinib = compound: CN1CCN(CC1)C2=CC(=C(C=C2)NC3=NC(=C(S3)C(=O)C4=C(C=CC=C4Cl)Cl)N)OC [XMD14-99] + COc1cc2c(Oc3ccc(NC(=O)C4(C(=O)Nc5ccc(F)cc5)CC4)cc3F)ccnc2cc1OCCCN1CCOCC1 [Foretinib] (partner 0.25 µM); experiment: as above
Outline: as §1

| Cell Line | relative viability (AZD1208 + Tozasertib; first compound 0.08 µM) | relative viability (AZD1208 + Tozasertib; first compound 0.253 µM) | relative viability (AZD1208 + Tozasertib; first compound 0.8 µM) | relative viability (AZD1208 + Tozasertib; first compound 2.53 µM) | relative viability (AZD1208 + Tozasertib; first compound 8 µM) | relative viability (XMD14-99 + Foretinib; first compound 0.08 µM) | relative viability (XMD14-99 + Foretinib; first compound 0.8 µM) | relative viability (XMD14-99 + Foretinib; first compound 2.53 µM) | relative viability (XMD14-99 + Foretinib; first compound 8 µM) |
| --- | --- | --- | --- | --- | --- | --- | --- | --- | --- |
| NCI-H1437 | 0.429 | 0.378 | 0.335 | 0.353 | 0.351 | 1.25 | 1.05 | 1.06 | 0.891 |
| NCI-H2342 | 0.454 | 0.499 | 0.453 | 0.418 | 0.421 | 1.15 | 0.943 | 0.973 | 0.784 |
| LU99A | 0.288 | 0.304 | 0.276 | 0.3 | 0.203 | 0.893 | 0.872 | 0.729 | 0.649 |
| SW 900 | 0.535 | 0.56 | 0.528 | 0.552 | 0.428 | 1.02 | 0.694 | 0.802 | 0.718 |
| HCC-827 | 0.445 | 0.409 | 0.412 | 0.385 | 0.401 | 1.06 | 0.935 | 0.978 | 0.727 |
| LK-2 | 0.157 | 0.2 | 0.169 | 0.13 | 0.168 | 0.99 | 1.17 | 0.991 | 1.2 |
| HCC-366 | 0.118 | 0.125 | 0.12 | 0.098 | 0.0502 | 0.912 | 0.943 | 0.96 | 0.918 |
| BEN | 0.507 | 0.414 | 0.385 | 0.374 | 0.435 | 0.662 | 0.695 | 0.705 | 0.678 |
| NCI-H2347 | 0.364 | 0.523 | 0.524 | 0.687 | 0.502 | 0.913 | 0.92 | 1 | 0.369 |
| NCI-H1395 | 0.803 | 0.68 | 0.677 | 0.629 | 0.571 | 0.986 | 0.965 | 0.998 | 0.901 |
| A549 |  |  |  |  |  | 0.899 | 0.916 | 0.787 | 0.693 |
| 201T | 0.959 | 0.934 | 0.865 | 0.803 | 0.649 | 1.05 | 1.1 | 1.01 | 0.956 |
| NCI-H2170 | 0.718 | 0.707 | 0.614 | 0.447 | 0.306 | 0.978 | 1.02 | 1.02 | 0.921 |
| NCI-H520 | 0.432 | 0.37 | 0.422 | 0.355 | 0.331 | 0.711 | 0.712 | 0.662 | 0.501 |
| NCI-H727 | 0.673 | 0.636 | 0.568 | 0.566 | 0.585 | 0.95 | 0.893 | 0.684 | 0.555 |
| HCC-15 | 0.362 | 0.306 | 0.241 | 0.186 | 0.184 | 1.01 | 1.01 | 0.9 | 0.693 |
| NCI-H1563 |  |  |  |  |  | 0.878 | 0.941 | 0.871 | 0.74 |
| ABC-1 | 0.168 | 0.155 | 0.214 | 0.192 | 0.192 | 1.14 | 0.883 | 0.957 | 0.937 |
| LCLC-103H | 0.51 | 0.425 | 0.457 | 0.481 | 0.373 | 0.802 | 0.691 | 0.734 | 0.607 |
